Results taken from article PMC4657098, “A Review of the Updated Pharmacophore for the Alpha 5 GABA(A) Benzodiazepine Receptor Model” (International Journal of Medicinal Chemistry, 2015).
Several values for one entry are separate records, joined by “and”; a condition that tells them apart may be missing. Equal values may be shown once. Read-outs that look alike come from different tables or passages of the source.

Legend:
α2β3γ2 GABAA/BzR [1] = target: T1, α2β3γ2 GABAA/BzR (Homo sapiens, UniProt P18507+P47869); set-up: expressed in transfected cells; host or cells: LTK cells (given for XLi-093 only); settings: Figure 4, read-out: Ki α2, cited from earlier work
α5β3γ2 GABAA/BzR = α5β3γ2 GABAA/BzR (Homo sapiens, UniProt P18507+P31644); assay: Competition binding to HEK cell membranes, α5β3γ2; set-up: expressed in transfected cells; settings: Affinity Ki α5
α1β3γ2 GABAA/BzR [2] = target: T2, α1β3γ2 GABAA/BzR (Homo sapiens, UniProt P14867+P18507); set-up: expressed in transfected cells; host or cells: LTK cells (given for XLi-093 only); settings: Figure 4, read-out: Ki α1, cited from earlier work
α2β3γ2 GABAA receptor = settings: cited from earlier work; for Efficacy α2 as % of control current: baseline 100
AD rat model = assay: Spatial water maze task in AD rat model; assay type: in vivo; settings: relative to vehicle, p < 0.05
Description: It is well known many Down syndrome patients develop Alzheimer's disease or a dementia with a very similar etiology.

rats = settings: cited from earlier work
rhesus monkeys = settings: cited from earlier work
α3β3γ2 GABAA/BzR [3] = target: T3, α3β3γ2 GABAA/BzR (Homo sapiens, UniProt P18507+P34903); set-up: expressed in transfected cells; host or cells: LTK cells (given for XLi-093 only); settings: Figure 4, read-out: Ki α3, cited from earlier work
mice = settings: mice; ref Harris, DeLorey et al.; cited from earlier work
α6β3γ2 GABAA/BzR [4] = target: T4, α6β3γ2 GABAA/BzR (Homo sapiens, UniProt P18507+Q16445); set-up: expressed in transfected cells; host or cells: LTK cells (given for XLi-093 only); settings: read-out: Ki α6; cited from earlier work
α5β3γ2 GABAA receptor = target: T5, α5β3γ2 GABAA receptor (Homo sapiens, UniProt P18507+P31644); settings: cited from earlier work; for Efficacy α5 as % of control current: baseline 100
T5 construct: expressed in transfected cells; host or cells: Xenopus oocytes

α3β3γ2 GABAA receptor = settings: cited from earlier work; for Efficacy α3 as % of control current: baseline 100
α2β3γ2 GABAA/BzR [5] = target: T1, α2β3γ2 GABAA/BzR; assay: Competition binding to HEK cell membranes, α2β3γ2; set-up: expressed in transfected cells; settings: Table 2; data from three separate laboratories; read-out: Affinity Ki α2
α3β3γ2 GABAA/BzR [6] = target: T3, α3β3γ2 GABAA/BzR; assay: Competition binding to HEK cell membranes, α3β3γ2; set-up: expressed in transfected cells; settings: Table 2; data from three separate laboratories; read-out: Affinity Ki α3
α6β3γ2 GABAA/BzR [7] = target: T4, α6β3γ2 GABAA/BzR; assay: Competition binding to HEK cell membranes, α6β3γ2; set-up: expressed in transfected cells; settings: Affinity Ki α6
α1β3γ2 GABAA receptor = settings: cited from earlier work; for Efficacy α1 as % of control current: baseline 100
α1β3γ2 GABAA/BzR [8] = target: T2, α1β3γ2 GABAA/BzR; assay: Competition binding to HEK cell membranes, α1β3γ2; set-up: expressed in transfected cells; settings: Table 2; data from three separate laboratories; read-out: Affinity Ki α1
[9] = system: human airway smooth muscle cells; settings: whole cell patch clamp; cited from earlier work
MAM rats = settings: cited from earlier work
primates = settings: cited from earlier work
[10] = system: guinea pig airway smooth muscle; settings: 1 μM substance P; p < 0.01; cited from earlier work
α6β2γ2 GABAA receptor = target: T6, α6β2γ2 GABAA receptor (Homo sapiens, UniProt P18507+Q16445); assay: Radioligand binding (McKernan and Atack), α6β2γ2; settings: Table 3; αxβ2γ2; means of two determinations; read-out: Binding affinity α6
T6 construct: expressed in transfected cells; host or cells: HEK cells
Experimental: (§1) Transfected HEK cells (beta2 gamma2 and desired alpha subtype) were harvested into phosphate-buffered saline, centrifuged at 3,000 g, and stored at −70°C until required. On the day of the assay, pellets were thawed and resuspended in sufficient volume of 50 mM Tris/acetate (pH 7.4 at 4°C) to give a total binding of approximately 1500–2000 dpm. […] Total assay volume was 0.5 mL and assays were carried out in 96-well plates and incubation time started by the addition of 0.1 mL of resuspended cell membranes. Following incubation for 1 hour at 4°C, assays were terminated by filtration through GF/B filters, washed with 10 mL ice cold buffer, dried, and then counted using a liquid scintillation counter. […] We have previously reported the synthesis of the following.

α4β2γ2 GABAA receptor = target: T7, α4β2γ2 GABAA receptor (Homo sapiens, UniProt P18507+P48169); assay: Radioligand binding (McKernan and Atack), α4β2γ2; settings: Table 3; αxβ2γ2; means of two determinations; read-out: Binding affinity α4
T7 construct: expressed in transfected cells; host or cells: HEK cells
Experimental: as §1

[11] = system: dopamine neurons in the VTA; settings: cited from earlier work
[12] = system: human airway smooth muscle; settings: 50 μM; p < 0.01; cited from earlier work
[13] = system: human airway smooth muscle cells; settings: 10 μM; bradykinin 1 μM; cited from earlier work
ventral HPC neurons = settings: 0.1 mg/kg, i.v.; MAM- and saline-treated animals; cited from earlier work
rodents = settings: one study in rodents; cited from earlier work

COCc1ncn2c1CN(C)C(=O)c1cc(Cl)ccc1-2 [PWZ-029 (1)]
Ki (α2β3γ2 GABAA/BzR [1]; listed as 1a): > 300 nM | Ki (α2β3γ2 GABAA/BzR [1]; listed as 1c): 180 nM | Ki (α5β3γ2 GABAA/BzR): 38.8 nM and 30 nM and 6 nM | Ki (α1β3γ2 GABAA/BzR [2]; listed as 1a): > 300 nM | Ki (α1β3γ2 GABAA/BzR [2]; listed as 1c): 362 nM | modulation at the α2-subunit (α2β3γ2 GABAA receptor; 0.1 μM): little or no effect | efficacy type at the α2 subunit (α2β3γ2 GABAA receptor; oocytes, Sieghart et al.): very weak agonist activity | latency to reach the hidden platform (memory probe trials) (AD rat model): significant decrease in the latency to reach the hidden platform | recognition memory deficit induced by 0.3 mg/kg scopolamine, 1 h delay (rats; 2 mg/kg): successfully reversed the deficit in recognition memory | object recognition, 24 h delay (rats; 2, 5 and 10 mg/kg): improved object recognition | ORD “difficult” trials (rhesus monkeys; i.v.): increasing dose-dependent curve for successful trials | ORD “mixed” trials versus vehicle (rhesus monkeys; i.v.): no significant results | ORD, cholinergic deficits induced by scopolamine (rhesus monkeys; scopolamine 0.01 mg/kg): dose-dependently reverse the cholinergic deficits | Ki (α3β3γ2 GABAA/BzR [3]; listed as 1a): > 300 nM | Ki (α3β3γ2 GABAA/BzR [3]; listed as 1c): 328 nM | scopolamine-induced memory impairment (mice): potently reversed | Ki (α6β3γ2 GABAA/BzR [4]): > 300 nM | efficacy type at the α5-subunit (α5β3γ2 GABAA receptor): negative allosteric modulator | modulation at the α5-subunit (α5β3γ2 GABAA receptor): moderate negative modulation | modulation at the α3-subunit (α3β3γ2 GABAA receptor; 0.1 μM): little or no effect | efficacy type at the α3 subunit (α3β3γ2 GABAA receptor; oocytes, Sieghart et al.): very weak agonist activity | Ki (α2β3γ2 GABAA/BzR [5]): > 300 nM and 180 nM | Ki (α3β3γ2 GABAA/BzR [6]): > 300 nM and 328 nM | Ki (α6β3γ2 GABAA/BzR [7]): > 300 nM | modulation at the α1-subunit (α1β3γ2 GABAA receptor; 0.1 μM): little or no effect | efficacy type at the α1 subunit (α1β3γ2 GABAA receptor; oocytes, Sieghart et al.): very weak agonist activity | Ki (α1β3γ2 GABAA/BzR [8]): > 300 nM and 920 nM and 362 nM

C#Cc1ccc2c(c1)C(c1ccccc1F)=N[C@H](C)c1c(C(=O)OCC)ncn1-2 [SH-053-2′F-R-CH3, (2)]
plasma membrane chloride current [9]: induced a Cl^− current | locomotor response to D-amphetamine (0.5 mg/kg i.p.), MAM rats (MAM rats; 10 mg/kg, i.p.): reduced | locomotor response to D-amphetamine in repeatedly haloperidol-treated SAL animals (MAM rats; rat, in vivo): reduced | peak locomotor response in repeatedly haloperidol-treated MAM rats (MAM rats; rat, in vivo): no effect | Efficacy α2 as % of control current (α2β3γ2 GABAA receptor; 100 nM): 124 % of control current | Efficacy α2 as % of control current (α2β3γ2 GABAA receptor; 1 μM): 185 % of control current | anxiolytic effect (primates): very weak anxiolytic effect | remaining contractile force 30 minutes after a substance P-induced contraction [10]: significantly reduced | Efficacy α5 as % of control current (α5β3γ2 GABAA receptor; 100 nM): 183 % of control current | Efficacy α5 as % of control current (α5β3γ2 GABAA receptor; 1 μM): 387 % of control current | Efficacy α3 as % of control current (α3β3γ2 GABAA receptor; 100 nM): 125 % of control current | Efficacy α3 as % of control current (α3β3γ2 GABAA receptor; 1 μM): 220 % of control current | Ki (α6β2γ2 GABAA receptor): > 5000 nM | Ki (α4β2γ2 GABAA receptor): > 5000 nM | dopamine neuron activity in control animals ([11]; 0.1 mg/kg, i.v.): no effect | firing rate and burst activity in MAM animals ([11]; 0.1 mg/kg, i.v.): no effect | number of spontaneously firing dopamine neurons (cells/track), MAM animals ([11]; 0.1 mg/kg, i.v.): normalizes the aberrant increase | dopamine activity and locomotor response in MAM rats withdrawn from HAL [11]: unresponsive | number of spontaneously firing dopamine neurons (cells/track), MAM animals ([11]; hippocampal infusion 1 μM/side): normalizes the aberrant increase | percentage of spikes occurring in bursts, MAM and control animals ([11]; hippocampal infusion 1 μM/side): significantly reduced | cells/track in repeatedly haloperidol-treated SAL rats ([11]; rat, in vivo): reversed the haloperidol-induced reduction | firing rate of dopamine neurons in repeatedly haloperidol-treated SAL rats ([11]; rat, in vivo): increase | percentage of spikes occurring in bursts, haloperidol-treated SAL and MAM rats ([11]; rat, in vivo): no impact | isoproterenol (10 nM) mediated relaxation of an acetylcholine EC50 contraction [12]: significantly enhances | Efficacy α1 as % of control current (α1β3γ2 GABAA receptor; 100 nM): 111 % of control current | Efficacy α1 as % of control current (α1β3γ2 GABAA receptor; 1 μM): 154 % of control current | bradykinin-induced increase in intracellular calcium [13]: attenuated | evoked excitatory response of ventral HPC neurons (ventral HPC neurons): decreases | locomotion (rodents): decrease in locomotion
